Values belong to the compound of their own block, whether it stands above or below them.
Assay: solvent given as SMILES

emission maximum (in C1CCOC1): 419 nm
emission maximum (in CO): 442 nm
Compound: CCOC(=O)C1=CN(c2ccccc2)C=CC1c1ccccc1 (stereo not drawn)

emission maximum (in CCCCCC): 466 nm
Compound: CC(C)[Si](C#Cc1ccc(C#C[Si](C(C)C)(C(C)C)C(C)C)c2nc3c(ccc4cc5ccccc5cc43)nc12)(C(C)C)C(C)C

emission maximum (in C1CCOC1): 518 nm
emission maximum (in CC#N): 521 nm
emission maximum (in CCO): 516 nm
emission maximum (in CS(C)=O): 549 nm
Compound: CCOC(=O)c1ccccc1-c1c2ccc(=O)cc-2oc2cc(OC(=O)[C@H](CSCc3ccc(C)cc3)NC(=O)OC(C)(C)C)ccc12

emission maximum (in CN(C)C=O): 534 nm
Compound: O=C1c2ccc3c4ccc5c6c(ccc(c7ccc(c2c37)C(=O)N1c1ccc(Cl)cc1)c64)C(=O)N(c1ccc(Cl)cc1)C5=O

emission maximum (in ClCCl): 402 nm
Compound: COc1cc2c(cc1OC)C1=C[C@H](c3ccc(C)cc3)C3(C(C#N)=C(C#N)N1CC2)c1cc(Cl)ccc1-c1ccc(Cl)cc13

emission maximum (in CN(C)C=O): 602 nm
emission maximum (in ClC(Cl)Cl): 597 nm
Compound: COc1cc2c(cc1OC)C1=C3C(=O)N4C=Cc5cc(OC)c(OC)cc5C4=C3C(=O)N1C=C2

emission maximum (in O): 526 nm
Compound: CC1(C)C(=O)C=Cc2ccc(N)cc21

emission maximum (in CCO): 344 nm
Compound: c1ccc(-n2c3ccccc3c3ccccc32)cc1

emission maximum (in ClC(Cl)Cl): 538 nm
Compound: CCOC(CN1C(=O)C2=C(c3ccc(OC)c(OC)c3)N(CC(OCC)OCC)C(=O)C2=C1c1ccc(OC)c(OC)c1)OCC

emission maximum (in CS(C)=O): 633 nm
Compound: O=C(O)COc1cccc(-c2c3nc(cc4ccc([nH]4)c(-c4cccc(OCC(=O)O)c4)c4nc(cc5ccc2[nH]5)C=C4)C=C3)c1

emission maximum (in CC#N): 480 nm
emission maximum (in CO): 500 nm
emission maximum (in ClCCl): 481 nm
Compound: COc1ccc(O)c(-c2[nH]c(=O)n3c2-c2ccccc2C3=O)c1

emission maximum (in CCO): 437 nm
Compound: C#Cc1ccc2cc3c(C)cc(=O)oc3cc2c1

emission maximum (in C1COCCO1): 373 nm
emission maximum (in CC#N): 372 nm
emission maximum (in CC(C)(C)O): 381 nm
emission maximum (in CC(C)O): 378 nm
emission maximum (in CCCCO): 378 nm
emission maximum (in CCOC(C)=O): 375 nm
emission maximum (in CN(C)C=O): 375 nm
emission maximum (in CO): 380 nm
emission maximum (in ClCCl): 411 nm
emission maximum (in O): 407 nm
Compound: COc1ccc(C(=O)/C=C2\C(=O)Nc3ccccc32)cc1

emission maximum (in ClC(Cl)Cl): 460 nm
Compound: CCCCn1c(=O)c2cc3ccc4cccc5ccc(c2c1=O)c3c45

emission maximum (in CC#N): 525 nm
emission maximum (in CCO): 529 nm
emission maximum (in CN(C)C=O): 538 nm
emission maximum (in O): 527 nm
Compound: COC(=O)c1ccccc1-c1c2ccc(=[NH2+])cc-2oc2cc(N)ccc12

emission maximum (in CCO): 567 nm
emission maximum (in O): 574 nm
Compound: CN(C)c1ccc2c(-c3cc(N)ccc3C(=O)[O-])c3ccc(=[N+](C)C)cc-3oc2c1

emission maximum (in C1COCCO1): 537 nm
emission maximum (in CC#N): 541 nm
emission maximum (in CCO): 545 nm
emission maximum (in CCOC(C)=O): 535 nm
emission maximum (in O): 542 nm
Compound: CN1C(=O)/C(=C/c2ccncc2)N=C1/C=C/c1ccncc1

emission maximum (in ClC(Cl)Cl): 669 nm
Compound: Cc1cc(C)c(C2=C3C=CC=[N+]3[B-]3(c4ccccc4)Oc4cc(O)cc5c6ccc(C)cc6c6cc2n3c6c45)c(C)c1 (stereo not drawn)

emission maximum (in ClCCl): 480 nm
Compound: Cc1ccc(C#Cc2ccc3nc4ccc(C#Cc5ccc(C)cc5)cn4c(=O)c3c2)cc1

emission maximum (in CCO): 454 nm
Compound: O=c1c2cc(F)c(O)cc2n(-c2ccccc2)c2cc(O)c(F)cc12

emission maximum (in C1CCCCC1): 386.34 nm
emission maximum (in C1CCOC1): 390.22 nm
emission maximum (in CC#N): 388.06 nm
emission maximum (in CCCCCC): 384.62 nm
emission maximum (in CCO): 386.99 nm
emission maximum (in CN(C)C=O): 392.15 nm
emission maximum (in CO): 386.56 nm
emission maximum (in ClC(Cl)Cl): 391.46 nm
emission maximum (in ClCCl): 391.08 nm
Compound: COc1ccc(-c2cc3c4c(c2)CCc2cc(-c5ccc(OC)cc5)cc(c2-4)CC3)cc1

Continued, compound first:

Compound: O=c1c2cc(Cl)ccc2[nH]c2ccc(COO)cc12
emission maximum (in O): 425 nm

Compound: COc1ccc(-c2nc3c(c4c2-c2ccc(C#N)cc2CC4)-c2ccc(C#N)cc2CC3)cc1
emission maximum (in C1CCOC1): 426 nm
emission maximum (in CC#N): 430 nm
emission maximum (in CCCCCC): 420 nm
emission maximum (in CCOC(C)=O): 423 nm
emission maximum (in CO): 426 nm
emission maximum (in CS(C)=O): 435 nm
emission maximum (in Cc1ccccc1): 422 nm
emission maximum (in ClCCl): 425 nm

Compound: COc1ccc(C2=[N+]3C(=Nc4c(-c5cc(OC)c(OC)c(OC)c5)c(-c5ccc(C(C)(C)C)cc5)c(-c5ccc(OC)cc5)n4[B-]3(F)F)C(c3cc(OC)c(OC)c(OC)c3)=C2c2ccc(C(C)(C)C)cc2)cc1
emission maximum (in Cc1ccccc1): 726 nm

Compound: CCCCCc1ccc(C#Cc2cc(C#Cc3ccc(CCCCC)cc3)c3ccc4c(C(=O)c5ccccc5)cc(C#Cc5ccc(CCCCC)cc5)c5ccc2c3c54)cc1
emission maximum (in ClCCl): 511 nm

Compound: C(S/C=C/c1ccc(/C=C/SC=C2CCCCCC2)cc1)=C1CCCCCC1
emission maximum (in ClCCl): 422 nm

Compound: c1ccc2c(c1)c1ccccc1n2-c1ccc(-c2ccc(-n3c4ccccc4c4ccccc43)nc2-n2c3ccccc3c3ccccc32)nn1
emission maximum (in CC#N): 464.96 nm
emission maximum (in Cc1ccccc1): 423 nm
emission maximum (in ClCCl): 432.68 nm

Compound: CN(C)c1ccc(-c2ccc(-c3cc(N4CCCCC4)c(C#N)c4c3-c3ccccc3CC4)s2)cc1
emission maximum (in C1CCCCC1): 491 nm
emission maximum (in C1CCOC1): 537 nm
emission maximum (in CN(C)C=O): 590 nm
emission maximum (in CS(C)=O): 570 nm
emission maximum (in Cc1ccccc1): 515 nm
emission maximum (in ClC(Cl)Cl): 540 nm

Compound: CCCCCCCCCCCCn1cccc1/C=C/c1ccc(OCCCC)c2c(/C=C/c3cccn3CCCCCCCCCCCC)ccc(OCCCC)c12
emission maximum (in Cc1ccccc1): 490 nm

Compound: CCCCCCCCCCOc1cc(OCCCCCCCCCC)cc(C2=C3C(/C=C/c4ccc(OC)cc4)=C(C#Cc4ccc(C(C)(C)C)cc4)C(/C=C/c4ccc(OC)cc4)=[N+]3[B-](F)(F)n3c(/C=C/c4ccc(OC)cc4)c(C#Cc4ccc(C(C)(C)C)cc4)c(/C=C/c4ccc(OC)cc4)c32)c1
emission maximum (in ClC(Cl)Cl): 756 nm

Compound: CN(C)c1ccc(C(=O)Nc2ccc([N+](=O)[O-])cc2)cc1
emission maximum (in C1CCCCC1): 360 nm
emission maximum (in C1CCOC1): 400 nm
emission maximum (in CC#N): 430 nm
emission maximum (in CCOCC): 536 nm

Compound: CCN(CC)c1ccc2cc(/C=C/C3=C4CC/C(=C\c5cc6ccc(N(CC)CC)cc6oc5=O)C4=[O+][B-](F)(F)O3)c(=O)oc2c1
emission maximum (in C1COCCO1): 675 nm
emission maximum (in CC#N): 758 nm
emission maximum (in CC(C)=O): 734 nm
emission maximum (in CCOC(C)=O): 693 nm
emission maximum (in CN(C)C=O): 758 nm
emission maximum (in CS(C)=O): 780 nm
emission maximum (in Cc1ccccc1): 658 nm
emission maximum (in ClC(Cl)Cl): 706 nm
emission maximum (in ClCCl): 730 nm

Compound: CCCCN1c2ccccc2Sc2cc(/C=C/C3=Nc4ccc5ccccc5c4C3(C)C)ccc21
emission maximum (in C1CCCCC1): 517 nm
emission maximum (in C1CCOC1): 571 nm
emission maximum (in C1COCCO1): 562 nm
emission maximum (in CC#N): 610 nm
emission maximum (in CC(C)=O): 598 nm
emission maximum (in CC(C)O): 602 nm
emission maximum (in CCOC(C)=O): 564 nm
emission maximum (in CCOCC): 546 nm
emission maximum (in CO): 635 nm
emission maximum (in CS(C)=O): 612 nm
emission maximum (in Cc1ccccc1): 550 nm
emission maximum (in ClCCl): 595 nm

Compound: Cc1ccc(C(=O)/C=C/c2ccc(N(C)C)cc2)cc1
emission maximum (in C1CCOC1): 503 nm
emission maximum (in CC#N): 529 nm
emission maximum (in CC(=O)O): 512 nm
emission maximum (in CC(C)=O): 516 nm
emission maximum (in CCO): 533 nm
emission maximum (in CN(C)C=O): 528 nm
emission maximum (in CO): 533 nm
emission maximum (in Cc1ccccc1): 477 nm
emission maximum (in ClC(Cl)Cl): 508 nm
emission maximum (in c1ccccc1): 473 nm

Compound: Cc1cc2c(cc1C)NC(=O)CC(=O)N2
emission maximum (in CS(C)=O): 349 nm

Compound: O=C(c1ccc(-n2c3ccccc3c3ccccc32)cc1)c1ccc(-n2c3ccccc3c3ccccc32)cc1
emission maximum (in Cc1ccccc1): 438 nm
emission maximum (in O=P(c1ccccc1)(c1ccccc1)c1ccccc1Oc1ccccc1P(=O)(c1ccccc1)c1ccccc1): 444 nm

Compound: O=Cc1ccc2nc(C#Cc3ccc(N(c4ccccc4)c4ccccc4)cc3)sc2c1
emission maximum (in Cc1ccccc1): 473 nm

Compound: CC[n+]1ccc(/C=C/c2cc(OC)c(C=O)cc2OC)cc1
emission maximum (in C1CCOC1): 557 nm
emission maximum (in CC#N): 566 nm
emission maximum (in CN(C)C=O): 565 nm
emission maximum (in Cc1ccccc1): 554 nm
emission maximum (in ClCCl): 561 nm
emission maximum (in O): 558 nm

Compound: c1cc2c3c(c1)OCCCCCCCOc1cccc(c1-c1c4ccccc4c-3c3ccccc13)OCCCCCCCO2
emission maximum (in C1CCCCC1): 427 nm

Compound: CC1(C)c2ccccc2N(c2ccc(-c3nnc(-c4ccccc4)o3)cc2)c2ccccc21
emission maximum (in Cc1ccccc1): 450 nm
emission maximum (in c1ccc(-n2c(-c3c(-n4c5ccccc5c5ccccc54)cccc3-n3c4ccccc4c4ccccc43)nc3ccccc32)cc1): 455 nm

Compound: CCCCCCC(CCCCCC)N1C(=O)c2cccc3c(-c4ccc([Si](C)(C)C)cc4)ccc(c23)C1=O
emission maximum (in CCCCCC): 406.7 nm
emission maximum (in CCCCCCCCCCCCCC): 407 nm
emission maximum (in CCCCCCCCCCCO): 430.6 nm
emission maximum (in CCCCO): 434.2 nm
emission maximum (in CN(C)C=O): 432.7 nm
emission maximum (in Cc1ccccc1): 416.7 nm
emission maximum (in ClC(Cl)Cl): 425.4 nm

Compound: COc1ccc(C2=C(c3ccc(OC)cc3)C(c3ccc(OC)cc3)=[N+]3C2=C(c2ccc(OC)cc2)c2c(-c4ccc(OC)cc4)c(-c4ccc(OC)cc4)c(-c4ccc(OC)cc4)n2[B-]3(F)F)cc1
emission maximum (in C1CCOC1): 640 nm

Compound: CCCCCCC1(CCCCCC)c2ccccc2-c2ccc(-c3ccc(-c4cc(-c5ccccn5)nc(-c5ccccn5)c4)cc3)cc21
emission maximum (in ClCCl): 409 nm

Compound: Cc1nn(-c2ccccc2)c2c1c(=O)oc1ccc(-n3c4ccccc4c4ccccc43)cc12
emission maximum (in Cc1ccccc1): 412 nm

Compound: F[B-]1(F)n2c(/C=C/c3ccc(C(=C(c4ccccc4)c4ccccc4)c4ccccc4)cc3)ccc2C(c2ccccc2)=C2C=CC(/C=C/c3ccc(C(=C(c4ccccc4)c4ccccc4)c4ccccc4)cc3)=[N+]21
emission maximum (in C1CCOC1): 690 nm

Compound: C(#Cc1cc2ccc3cccc4ccc(c1)c2c34)c1ccccc1
emission maximum (in Cc1ccccc1): 399 nm

Compound: Cc1cc(-c2nc(-c3ccccc3)nc(-c3ccccc3)n2)cc(C)c1N1c2ccccc2CCc2ccccc21
emission maximum (in Cc1ccccc1): 475.79 nm

Compound: c1ccc(-c2nc(-c3ccccc3)nc(-c3ccc(-c4ccc5c(c4)[Si](c4ccccc4)(c4ccccc4)c4cc(-c6ccc(-c7nc(-c8ccccc8)nc(-c8ccccc8)n7)cc6)ccc4N5c4ccccc4)cc3)n2)cc1
emission maximum (in c1cc(-c2cccc(-n3c4ccccc4c4ccccc43)c2)cc(-n2c3ccccc3c3ccccc32)c1): 459 nm
